The source of these data is patent publication US20170216297A1, “EFFICIENT INHIBITION OF HSP27” (TECHNISCHE UNIVERSITAET DRESDEN, priority 2014, published 2017).

One experiment deals with RPMI-8226 cells. Kind of experiment: Development of resistance to bortezomib in RPMI-8226 cells. The following applies: bortezomib 0.2-0.4 ng/ml, plus 0.75 μmol/L inhibitor. The format is cell-based. The method, then: The cell line RPMI-8226 (DMSZ 402) is a “multiple myeloma” cell line and was chosen because bortezomib is employed as a standard therapy for multiple myeloma. RPMI-8226 cells respond to bortezomib, express HSP27 and develop resistance to Velcade. RPMI-8226 cells were seeded at a cell count of 100,000 cells/ml in each case and regularly passaged. […] In contrast, for RPMI 8226 cells that were treated with 30 μmol/L BVDU, a final cell count of 160,000 cells/ml was detected whereas the final cell count for the culture without the addition of an HSP27 inhibitor amounted to 350,000 cells/ml. As a control, RPMI 8226 cells were treated with the respective test substances alone, FIG. 4b.

The subject of another experiment is U937 cells. Kind of experiment: Development of resistance to bortezomib in U937 cells. The format is cell-based. The method, then:
For this purpose, U937 cells (histiocytic lymphoma) were cultured in DMEM culture medium (+10% FCS) at 37° C., 5% CO2 in an H2O-saturated atmosphere. 100,000 cells/ml were seeded and incubated with the cytostatic agent bortezomib (0.1 ng/ml) and the respective test substance (dosage in the current experiment: 1 μM/L acepromazine). The reference substance, BVDU, was employed at a concentration of 30 μM/L. The cells were in each case passaged before the cell count reached 1,000,000 cells/ml. At each passage, 100,000 cells/ml were again seeded and the dose of the cytostatic agent bortezomib was increased stepwise (0.1 ng/mL or 0.05 ng/mL). The concentration of the test substances remained constant. As a result of the stepwise increase in the dosage of the cytostatic agent, resistance developed in the U937 cells. The development of resistance is prevented or inhibited in the case of a positively tested HSP27 inhibitor. The experiments from Example 6 were repeated in the same way, wherein U937 cells (histiocytic lymphoma) are cultured in DMEM culture medium (+10% FCS) at 37° C., 5% CO2 in an H2O— saturated atmosphere. 100,000 cells/ml were seeded and incubated with an initial concentration of 0.2 ng/ml of the cytostatic agent bortezomib and both without an inhibitor and with acepromazine as an HSP27 inhibitor at a concentration of 1 μM/L. The reference substance, BVDU, was employed at a concentration of 30 μM/L. The cells were passaged in each case before the cell count reached 1,000,000 cells/ml. At each passage, 100,000 cells/ml were again seeded and the dose of the cytostatic agent bortezomib was increased stepwise by 0.1 ng/mL. The concentration of the test substance and the reference substance remained constant. As a result of the stepwise increase in the dosage of the cytostatic agent, resistance developed in the U937 cells. The development of resistance is prevented or inhibited in the case of a positively tested HSP27 inhibitor. The cell line U-937 is a histiocytic lymphoma (DSMZ ACC 5). This cell line also responds to treatment with bortezomib, expresses HSP27 and develops resistance to bortezomib. Bortezomib is not the standard therapy for this lymphoma, but is being discussed as a possible therapeutic agent. U-937 cells were seeded with a cell count of 100,000 cells/ml in each case and regularly passaged. […] At the end of the experiment, 70,000 living cells per ml medium could be detected. For the treatment with 30 μmol/L BVDU, a final cell count of 250,000 cells/ml was detected whereas the final cell count in the culture without the addition of an HSP27 inhibitor amounted to 450,000 cells/ml. As a control, U-937 cells were treated with the respective test substances alone, FIG. 10b.

Turning to `CC(=O)c1ccc2c(c1)N(CCCN(C)C)c1ccccc1S2` [Acepromazine], the “development of resistance to bortezomib” value is “significantly inhibited” in the experiment on RPMI-8226 cells; “no development of resistance occurred” in the experiment with U937 cells (Example 6, FIG. 2: bortezomib 0.1 to 0.5 ng/ml, +1 μM inhibitor); “no development of resistance occurred” with U937 cells (Example 7, FIG. 3: bortezomib 0.2 to 0.4 ng/ml, +1 μM inhibitor); “significantly inhibited” in the experiment on U937 cells (Examples 17/18: bortezomib 0.1-0.5 ng/ml, plus 0.75 μmol/L inhibitor). Also, the “living cells after the end of the experiment” value in the experiment with U937 cells (Example 6, FIG. 2: bortezomib 0.1 to 0.5 ng/ml stepwise, +1 μM inhibitor, without inhibitor 790,000 cells/ml) is “no living cells were detectable”; in the experiment with U937 cells (Example 7, FIG. 3: bortezomib 0.2 to 0.4 ng/ml stepwise, +1 μM inhibitor, without inhibitor 230,000 cells/ml) it was “no living cells were detectable”.
